Results reported in article PMC5589090 (PLoS Medicine, 2017).
Values joined by “and” are separate entries in the source; they are usually repeats but may differ in a detail not shown here. Identical values can stand only once. Like-named read-outs stand apart in the source and are kept apart here.

How the values were obtained:
[1] = test system: testicular cancer; parameters: method as in ref 92 (a number printed in a supplementary file, which may have a reference list of its own: not looked up in the article's list); details: 20% incidence in controls; cited from earlier work
[2] = test system: lung tumor; parameters: method as in ref 91 (a number printed in a supplementary file, which may have a reference list of its own: not looked up in the article's list); details: cited from earlier work
[3] = parameters: method as in ref 99 (a number printed in a supplementary file, which may have a reference list of its own: not looked up in the article's list); details: cited from earlier work
[4] = test system: thyroid carcinoma; parameters: method as in ref 95 (a number printed in a supplementary file, which may have a reference list of its own: not looked up in the article's list); details: cited from earlier work
[5] = read-out: decitabine Cmax; 15 mg/m^2 IV over 3 hours Q8 hrs D1-3 or 20 mg/m^2 IV over 1 hour D1-5; ref 105;108;109; cited from earlier work
[6] = test system: THP1; details: 0.3 µM daily for 2-3 days; cited from earlier work
[7] = cited from earlier work
[8] = cited from earlier work; remark: listed apart in the source
[9] = test system: KG1a; details: cited from earlier work
[10] = test system: tumor cell lines; parameters: method as in ref 83 (a number printed in a supplementary file, which may have a reference list of its own: not looked up in the article's list); details: of 25 940 genes analyzed; cited from earlier work
[11] = Blood counts, clinical pathology (total hemoglobin, reticulocytes, platelets, ANC, ALC, WBC); type: in vivo, human; details: cohorts 4 and 5, while total hemoglobin increased
Excerpt: (§1) Blood counts, blood chemistries, total bilirubin, HbF, LDH, and D-dimer levels were standard clinical pathology tests through the CLIA-certified Clinical Pathology Laboratory at the University of Illinois at Chicago.

[12] = parameters: method as in ref 72 (a number printed in a supplementary file, which may have a reference list of its own: not looked up in the article's list); details: cited from earlier work
[13] = human, po, 0.01 mg/kg
Experimental: To ensure safety in case of this possibility, decitabine pharmacokinetics are measured after single dose oral administration of decitabine and THU.

[14] = Blood chemistries and biomarkers of hemolysis, thrombophilia, inflammation (LDH, total bilirubin, D-dimer, CRP); type: in vivo, human; details: cohorts 4 and 5
Excerpt: as §1

[15] = Adverse events (CTCAE v 4.0), phase 1 trial NCT01685515 in SCD adults; details: cohorts 1-5
Excerpt: The primary endpoint was ≥ grade 3 non-hematologic toxicity.
For statistical comparisons of adverse events (AEs) between placebo and each dose group, we performed exact tests of the null hypothesis that the rate parameters of Poisson distributed AEs are equal. Relative risks are given as the ratio of such rate parameters. Thus, differences are insignificant if relative risks confidence intervals include 1. The R function poisson.test(), an exact test, was used. Pain, the most frequent AE, was analyzed similarly.

[16] = test system: DNMT1; details: cited from earlier work
[17] = test system: immortal phenotype; parameters: method as in ref 93 (a number printed in a supplementary file, which may have a reference list of its own: not looked up in the article's list); details: cited from earlier work
[18] = cited from earlier work; remark: listed apart in the source
[19] = test system: multiple intestinal adenomas; parameters: method as in ref 90 (a number printed in a supplementary file, which may have a reference list of its own: not looked up in the article's list); details: cited from earlier work
[20] = cited from earlier work; remark: listed apart in the source
[21] = test system: Friend erythroleukemia cells; parameters: method as in ref 48 (a number printed in a supplementary file, which may have a reference list of its own: not looked up in the article's list); details: single exposure 0.4 µM; cited from earlier work
[22] = Table B1, baseline before treatment, per subject, r10 Mean ±SD
[23] = Table B1, last 20 of 36 weeks of treatment, per subject, r10 Mean ±SD

Nc1ncn([C@H]2C[C@H](O)[C@@H](CO)O2)c(=O)n1 [decitabine, 5-aza-2’-deoxycytidine]
testicular cancer occurrence [1]: 0% | reduction in tumor incidence [2]: 23% | reduction in tumor multiplicity [2]: 42% | testicular weight, sperm counts and fertility [3]: dose-dependent decrease in testicular weight, decline in sperm counts and reduced fertility | thyroid carcinoma promotion [4]: promoted goitrogen induced, but not radiation induced, thyroid carcinoma | Cmax [5]: ≤ 2700 nM | DNMT1 protein expression [6]: profoundly decreased DNMT1 protein expression | phosphorylation of H2AX [6]: did not increase phosphorylation of H2AX | viability [6]: did not decrease the viability | tolerability ([7]; 124 MDS subjects): well tolerated | major cytogenetic responses ([7]; MDS subjects with abnormal cytogenetics, 40-50 mg/m^2 3X/wk, courses every 6-8 weeks): 31% | unusual patterns of cytogenetic instabilities ([7]; MDS subjects): no unusual patterns of cytogenetic instabilities were found | treatment related deaths ([7]; MDS, 45 mg/m^2/day for 3 days every 6 weeks, ref Saba et al, 2004): no treatment related deaths | secondary malignancies ([7]; over 1,000 patients with hematologic or solid tumors): no reports of secondary malignancies | side effects of chronic metronomic very-low-dose decitabine ([7]; patients with myeloid malignancies, treated for years): without significant side effects | Platelet counts, average increase ([8]; at the 6th week): 2.2 fold | time to maximum HbF [8]: ≤ 4 weeks | Total Hb increase ([8]; in 6 of 8 subjects): 1 g/dL | transient decline in neutrophils ([8]; nadir at 6 weeks): 3 fold | DNMT1 protein expression ([9]; 0.3 µM daily for 2-3 days): profoundly decreased DNMT1 protein expression | viability ([9]; 0.3 µM daily for 2-3 days): did not decrease the viability | phospho-H2AX ([9]; 0.3 µM, 3 days of treatment): an increase in phospho-H2AX was noted | genes with increased expression [10]: 0.67% | reticulocyte counts [11]: decreased | Max F-cell% ([12]; SC decitabine, mean ± SD, r3 HU non-responders (n=3), r4 HU responders (n=5), r5 all patients (n=8)): 55.1 ± 11.1% and 81.2 ± 4.4% and 71.4 ± 6.5% | recovery from neutropenia ([12]; all subjects): within a week | Pre-tx HbF% ([12]; baseline, mean ± SD, r3 HU non-responders, r4 HU responders, r5 all patients): 2.4 ± 1.6% and 9.0 ± 2.5% and 6.5 ± 1.4% | local toxicity at SQ injection sites [12]: No local toxicity | bone marrow aspirate spicule cellularity with treatment ([12]; four subjects): no appreciable decrease | Total Hb, peak ([12]; mean ± 2SD, pre-treatment 7.6 ± 2): 9.6 ± 1.8 | Adh. to laminin, Pretherapy ([12]; mean ± SE, baseline): 3470 ± 500 RBCs/mm^2 | Adhesion to TSP, Pretherapy ([12]; mean ± SE, baseline): 1570 ± 170 RBCs/mm^2 | CRP, Pretherapy ([12]; mean ± SE, baseline): 1.25 ± 0.27 mg/dL | D-Dimer, Pretherapy ([12]; mean ± SE, baseline): 490 ± 90 ng/mL | F1+2, Pretherapy ([12]; mean ± SE, baseline): 1.75 ± 0.22 nmol/L | TAT, Pretherapy ([12]; mean ± SE, baseline): 7.0 ± 1.7 µg/L | VWFpp, Pretherapy ([12]; mean ± SE, baseline): 196 ± 26 u/dL | sVCAM, Pretherapy ([12]; mean ± SE, baseline): 1170 ± 140 ng/mL | Adh. to laminin, Post Cycle 1 ([12]; mean ± SE): 1950 ± 300 RBCs/mm^2 | Adh. to laminin, Post Cycle 2 ([12]; mean ± SE): 1570 ± 210 RBCs/mm^2 | Adhesion to TSP, Post Cycle 1 ([12]; mean ± SE): 690 ± 150 RBCs/mm^2 | Adhesion to TSP, Post Cycle 2 ([12]; mean ± SE): 910 ± 160 RBCs/mm^2 | CRP, Post Cycle 1 ([12]; mean ± SE): 1.19 ± 0.34 mg/dL | CRP, Post Cycle 2 ([12]; mean ± SE): 0.82 ± 0.26 mg/dL | D-Dimer, Post Cycle 1 ([12]; mean ± SE): 320 ± 50 ng/mL | D-Dimer, Post Cycle 2 ([12]; mean ± SE): 300 ± 50 ng/mL | F1+2, Post Cycle 1 ([12]; mean ± SE): 1.56 ± 0.16 nmol/L | F1+2, Post Cycle 2 ([12]; mean ± SE): 1.41 ± 0.15 nmol/L | TAT, Post Cycle 1 ([12]; mean ± SE): 8.6 ± 2.3 µg/L | TAT, Post Cycle 2 ([12]; mean ± SE): 5.2 ± 0.9 µg/L | VWFpp, Post Cycle 1 ([12]; mean ± SE): 156 ± 28 u/dL | VWFpp, Post Cycle 2 ([12]; mean ± SE): 144 ± 13 u/dL | sVCAM, Post Cycle 1 ([12]; mean ± SE): 930 ± 100 ng/mL | sVCAM, Post Cycle 2 ([12]; mean ± SE): 840 ± 100 ng/mL | nadir ANC, NCI grade 4 neutropenia ([12]; one patient): 400 µL⁻¹ | absolute reticulocyte count (ARC) during treatment ([12]; p=0.0006): decreased | total bilirubin during treatment ([12]; p=0.01): decreased | nadir ANC, grade 3 neutropenia ([12]; two patients): 800 µL⁻¹ | Cmax [13]: ≤ 0.74 nM | serum LDH ([14]; biomarker of hemolysis): improved | total bilirubin ([14]; biomarker of hemolysis): improved | CRP levels ([14]; biomarker of inflammation): improved | D-dimer ([14]; biomarker of thrombophilia): improved | grade 4 AEs [15]: no grade 4 AEs | concentrations that deplete DNMT1 without measurable DNA damage or cytotoxicity ([16]; in vitro): 200 to 500 nM | threshold concentration for depleting DNMT1 ([16]; ref 15;17-22;48): ~ 0.005 µM | half-life in vitro ([16]; ref 27;101): 5 to 16 h | immortal phenotype [17]: reversed the immortal phenotype | fetal defects ([18]; pregnant mice, dose and gestation day related): increased fetal defects | fertility in off-spring after in utero exposure ([18]; primarily in males): decreased fertility in off-spring | tumor development [19]: do not develop tumors | cumulative hematologic or non-hematologic toxicities ([20]; 36 weeks, seven subjects): No cumulative hematologic or non-hematologic toxicities | ANC nadir at optimal drug dose ([20]; IV 0.3 mg/kg/day 5 days/week for 2 weeks, 6-week cycles): > 1500 cells/µL | HbF (%) Pre [20, 22]: 3.12 ± 2.75% and 0.8% and 6.8% and 1.4% and 0.6% and 2.9% and 6.2% | Total Hemoglobin Pre [20, 22]: 7.32 ± 0.94 g/dL and 6.2 g/dL and 8.2 g/dL and 6.0 g/dL and 7.2 g/dL and 8.0 g/dL and 7.8 g/dL | HbF (%) Avg [20, 23]: 13.93 ± 2.35% and 12.40 ± 1.25% and 14.55 ± 1.32% and 12.75 ± 2.28% and 10.80 ± 2.05% and 16.42 ± 2.81% and 16.70 ± 2.55% | HbF (%) Max [20, 23]: 18.35 ± 4.46% and 14.4% and 16.3% and 17.2% and 24.6% and 23.2% | Total Hemoglobin Avg [20, 23]: 8.81 ± 0.42 g/dL and 9.05 ± 0.48 g/dL and 9.37 ± 0.60 g/dL and 8.34 ± 0.55 g/dL and 8.28 ± 0.52 g/dL and 8.91 ± 0.57 g/dL and 8.92 ± 0.79 g/dL | Total Hemoglobin Max [20, 23]: 9.73 ± 0.53 g/dL and 9.6 g/dL and 10.3 g/dL and 9.5 g/dL and 9.0 g/dL and 10.4 g/dL | average HbF during the last twenty weeks of treatment ([20]; base-line […] ± 2.75%): 13.93 ± 2.35% | average maximal HbF during the last twenty weeks of treatment ([20]; base-line […] ± 2.75%): 18.35% ± 4.46% | maximal F-cell numbers, average over all 7 subjects [20]: 69 ± 10.12% | period of neutropenia [20]: 1 to 3 days | average hemoglobin ([20]; last 20 weeks, base-line of 7.23 ±2.35 g/dL): 8.81 ± 0.42 g/dL | average ANC during the last 20 weeks of treatment ([20]; pretreatment average 4600 ± 1560, in cells/µL (unit assumed)): 4200 ± 1350 | individual maximal F-cell numbers ([20]; range over subjects): 58 - 87% | DNA methylation [21]: decreased DNA methylation | viability [21]: did not decrease viability
